Assay [1] deals with S. aureus. The experiment in a line: Five-minute kill test of solutions in 10% SDA40-B alcohol and water, colony counts on TSA. It counts as cell-based. Particulars: 5 minutes contact. Here is the method: Various concentrations of basil oil and acetic, lactic, and citric acids, separately and in combination, were prepared in 10 percent SDA40-B alcohol and water, and adjusted to 100 percent. Except for citric acid, which was added by weight, all other ingredients were measured by volume. 0.9 ml of each solution were dispensed in sterile culture tubes, in triplicate, and 0.1 ml of a 10^7 cfu/ml S. aureus culture was added to the tubes, vortexed, and then, five minutes later, 9.0 ml of drug inactivating medium was added to each tube. Serial dilutions were made with the drug inactivating medium. 0.5 ml of the dilutions were plated on trypticase soy agar (“TSA”) plates. As a control, water containing 10 percent SDA40-B alcohol was processed in parallel. The plates were incubated at 37° C. for 24-48 hours and then the colony counts were determined.
The same methodology was used to test the antimicrobial activity of combinations of citric acid with other essential oils.
Next, the same general protocol was used to test the efficacy of basil, cinammon and citronella oils against a variety of organisms, namely E. coli, P. aeruginosa, MRSA, C. albicans, and S. aureus.
Various concentrations of cinnamon leaf oil and citric acid were dissolved in SDA 40-B alcohol (10%) and water, and adjusted to 100 percent. Except for citric acid, which was added by weight, all other ingredients were measured by volume. 0.9 ml of each solution were dispensed in sterile culture tubes, in triplicate, and 0.1 ml of 10^7 cfu/ml of S. aureus culture was added to the tubes, vortexed, and then, five minutes later, 9.0 ml of drug inactivating medium was added to each tube. Serial dilutions were made with the drug inactivating medium. 0.5 ml of the dilutions were plated on trypticase soy agar (“TSA”) plates. As a control, water containing 10% percent SDA40-B alcohol was processed in parallel. The plates were incubated at 37° C. for 24-48 hours and then the colony counts were determined.
The following experiments were performed to evaluate the antibacterial activity of LG and Citric acid dissolved in alcohol, where the test organism used was S. aureus. Various amounts of LG oil and Citric acid were dissolved in SDA40-B alcohol, and then water was added to result in the EO concentration shown and an alcohol concentration of 10 percent. 0.9 ml of each solution were dispensed in sterile culture tubes, in triplicate, and 0.1 ml of a 10^7 cfulml S. aureus culture was added to the tubes, vortexed, and then, five minutes later, 9.0 ml of drug inactivating medium was added to each tube. Serial dilutions were made with drug inactivating medium. 0.5 ml of the dilutions were plated on trypticase soy agar (“TSA”) plates. As a control, water containing 10 percent SDA40-B alcohol was processed in parallel. The plates were incubated at 37° C. for 24-48 hours and then the colony counts were determined.

Assay [2] has as its system S. aureus. As to the kind of experiment: Soap rapid antimicrobial activity (30 second kill) with bovine serum. It counts as cell-based.
Description: The antimicrobial activity of the above soap was tested in parallel with commercial Softsoap® containing triclosan (Softsoap Antibacterial; Colgate-Palmolive). 0.1 ml of a 10^8 cfu/ml culture of each microbe tested was mixed with 0.1 ml of bovine serum and placed in a sterile culture tube. 0.8 ml of the test soap formulation was added to the tube and vortexed for 30 seconds. Then 9.0 ml DNB was added to neutralize the activity of the soap. The tube was then vortexed and serially diluted with DNB. 0.5 ml of the diluted solution was plated on TSA plates. The same soap base lacking cinnamon oil, citric acid, and orange oil, with phosphate buffered saline mixed with the culture, were used as the controls.
The antimicrobial activity of the above soap was tested in parallel with commercial Dial® Antibacterial Hand Soap) containing triclosan. 0.1 ml of a 10^8 cfu/ml culture of each microbe tested was mixed with 0.1 ml of bovine serum and placed in a sterile culture tube. 0.8 ml of the test soap formulation was added to the tube and vortexed for 30 seconds. Then 9.0 ml DNB was added to neutralize the activity of the soap. The tube was then vortexed and serially diluted with DNB. 0.5 ml of the diluted solution was plated on TSA plates. […]
(§1) A mixture of 0.1 ml of 10^7 cfu/ml of S. aureus culture and 0.1 ml of bovine serum were placed in a sterile culture tube. […] 0.5 ml of the diluted solution was plated on trypticase soy agar plates, incubated at 37° C. for 24-48 hrs and the colony counts were determined. […]
as §1
A mixture of 0.1 ml of 10^8 cfu/ml of S. aureus culture and 0.1 ml of bovine serum were placed in a sterile culture tube. […] 0.5 ml of the diluted solution was plated on trypticase soy agar plates, incubated at 37° C. for 24-48 hrs and the colony counts were determined.
The mark [3] stands for this setting: 10 percent SDA40-B alcohol, control counts 1 × 10^6 to 5 × 10^6 (Table 67).
Where [4] appears, read: 10 percent SDA40-B alcohol, control counts 1 × 10^6 to 5 × 10^6 (Table 66).
[5] abbreviates: SDA 40-B alcohol (10%) and water (Table 71).

Turning to `CC(C)=CCCC(C)=CCCC(C)=CCO` [0.25% Farnesol, Farnesol], in assay [1] (setting [3]), the “Log 10 reduction” value turned out to be 0 log10. On to `CC(=O)O` [1% Acetic acid (AA), Acetic acid], for which, in assay [1] (setting [4]), the “Log 10 reduction” value is listed as 0.2 log10. Consider `O=C(O)CC(O)(CC(=O)O)C(=O)O` [1% Citric Acid (CA), Citric Acid], for which the “Log 10 reduction” value in assay [1] (setting [4]) is 0.1 log10; in assay [1] (setting [3]) it was 0.1 log10; in assay [1] (SDA 40-B alcohol (10%) and water (Table 71), listed as Citric Acid 1.0%) it was 0.30 log10. Besides, the “Log10 reduction from control” value in assay [1] (10 percent alcohol, control counts 1 × 10^6 to 5 × 10^6 (Table 79)) is given as 0.3 log10. For the compound `CC(O)C(=O)O` (centres unmarked) [1% Lactic acid (LA), Lactic acid], in assay [1] (setting [4]), the “Log 10 reduction” value came to 2.3 log10. `CCCCCCCCC(O)CO` (centres unmarked) [1,2 decanediol (0.3%)]: in assay [2] (alkanediol 0.3% w/w where present, control counts 2 × 10^8-5 × 10^8), the “Log10 reduction from control” value is reported as 0.6 log10. Regarding `CCCCCCCCC(O)CO` (centres unmarked) [1,2 decanediol(0.5%)], the “Log10 reduction from control” value in assay [2] (alkanediol 0.5% w/w where present, soap pH 4.5-4.6, control counts 2 × 10^8-5 × 10^8) is 1.4 log10. As to `O=C(O)CC(O)(CC(=O)O)C(=O)O` [1.0 citric acid], in assay [2] (compounds (% w/w) in soft soap lacking triclosan, PBS control counts 7 × 10^7-1 × 10^8), the “Log10 reduction from control” value is 1.3 log10. On to `O=C(O)CC(O)(CC(=O)O)C(=O)O` [Citric Acid 0.5%, Citric Acid], for which the “Log 10 reduction” value in assay [1] (setting [5]) worked out at 0.20 log10. On the same count and under the same terms, the result for `O=C(O)CC(O)(CC(=O)O)C(=O)O` [Citric Acid 0.25%, Citric Acid] reads 0.08 log10; that for `O=C(O)CC(O)(CC(=O)O)C(=O)O` [Citric Acid 0.125%, Citric Acid], 0.02 log10; that for `O=C(O)CC(O)(CC(=O)O)C(=O)O` [Citric Acid 2%, Citric Acid], 0.32 log10.

(Values after patent US20100172848A1, “SKIN AND SURFACE DISINFECTANT COMPOSITIONS CONTAINING BOTANICALS” (The Trustees Of Columbia University In the City of New York, priority 2008, published 2010).)
